# Data: US20050203163A1, “Farnesyl transferase inhibitors in combination with HMG CoA reductase inhibitors for the treatment of cancer” (Pfizer Inc, priority 1997, published 2005)
# Tested on: K-Ras 4B
# Assay: Prenylation of K-ras 4B in intact cells (immunoblot, densitometric scanning)
# Assay type: cell-based
# Settings: 5 μM hydrolysed lovastatin alone (Compound 1 at 0); NIH-3T3 transfectant overexpressing mutant K-Ras 4B; 18 hours at 37° C.
smiles,measurement,value
"CC[C@H](C)C(=O)O[C@H]1C[C@@H](C)C=C2C=C[C@H](C)[C@H](CC[C@@H]3C[C@@H](O)CC(=O)O3)[C@H]21 [Lovastatin, lovastatin]",% Inhibition OF K-Ras 4B Prenylation,23%
